Assay results from PMC12040169 (PLOS Biology, 2025).

Assay: in vitro
Details: human, hela cells, % viability

Row | Compound | viability at 28.5 h, 10 µM
1 | O=C(Nc1ccc(NC(=O)c2ccccc2O)cc1)c1cnc(-c2ccccc2)c(-c2ccncc2)c1 [CBK037490] | 80.5%
2 | CN(C)CCN1CCN(c2nc(Br)cn3ccnc23)CC1 [CBK037501] | 91.3%
3 | CN(Cc1ccccc1)c1nccnc1-c1ccccc1Cl [CBK037502] | 103%
4 | CC(=O)c1ccc(-c2nccnc2N(C)Cc2ccccc2)s1 [CBK037504] | 112%
5 | CS(=O)(=O)CCNC(=O)c1cnc(-c2ccc(F)cc2)c(-c2ccco2)c1 [CBK037505] | 93.1%
6 | COc1ncc(-c2nccnc2NCc2cccc(OC)c2OC)c(OC)n1 [CBK037506] | 76.9%
7 | CC(=O)c1ccc(-c2nccnc2NCc2cccc([N+](=O)[O-])c2)s1 [CBK037509] | 106%
8 | c1cc(CNc2nccnc2-c2ccsc2)ccn1 [CBK037513] | 103%
9 | COc1ccc(-c2cc(C(=O)Nc3ccccn3)cnc2-c2ccccc2)cn1 [CBK037519] | 89.3%
10 | CC(C)[C@H](CO)Nc1nc(-c2ccc(CCC(=O)O)cc2)cn2ccnc12 [CBK037522] | 92.7%
11 | COc1ccc(-c2nc(NC(=O)Cc3ccc(S(C)(=O)=O)cc3)cnc2-c2cccc(C)c2)cc1 [CBK037525] | 88.2%
12 | Oc1cccc(-c2cn3ccnc3c(NCc3ccccn3)n2)c1 [CBK037535] | 102%
13 | Nc1cccc(-c2nccnc2NCc2cccs2)c1 [CBK037537] | 104%
14 | CC(C)[C@@H](CO)Nc1nc(-c2cccnc2)cn2ccnc12 [CBK037539] | 94%
15 | Nc1cccc(-c2nc(NC(=O)Cc3ccccc3)cnc2-c2ccc(F)cc2)c1 [CBK037550] | 91.3%
16 | COc1ccc(-c2nc(NC(=O)Cc3ccccc3OC(F)(F)F)cnc2-c2cccc(C)c2)cc1 [CBK037551] | 107%
17 | COc1ccc(-c2cc(C(=O)Nc3nccs3)cnc2-c2ccc(Cl)cc2)cc1 [CBK037553] | 87.4%
18 | O=C(NCC(c1cccnc1)N1CCOCC1)c1cnc(-c2ccc(Cl)cc2)c(-c2ccco2)c1 (stereo not shown) [CBK037554] | 100%
19 | CCNC(=O)c1cnc(-c2cccc(C(F)(F)F)c2)c(-c2cccc(CO)c2)c1 [CBK037557] | 94.7%
20 | COc1ccc(-c2nc(NC(=O)c3ccc(S(N)(=O)=O)cc3)cnc2-c2cccc(C)c2)cc1 [CBK037559] | 103%
21 | COc1ccc(-c2cc(C(=O)NCCc3ccc(N)cc3)cnc2-c2ccc(Cl)cc2)cc1 [CBK037561] | 91.6%
22 | COc1ccc(-c2cc(C(=O)NCC(O)c3ccc4ccccc4c3)cnc2-c2ccccc2)cn1 (stereo not shown) [CBK037562] | 103%

Row | Compound | viability at 28.5 h, 10 µM
23 | O=C(O)c1cccc(NC(=O)c2cnc(-c3cccc(C(F)(F)F)c3)c(-c3cccc(CO)c3)c2)c1 [CBK037565] | 96%
24 | O=C(Nc1cccnc1)c1cnc(-c2ccc(Cl)cc2)c(-c2cccnc2)c1 [CBK037568] | 102%
25 | Cc1cccc(-c2ncc(NC(=O)COc3ccc4ccccc4c3)nc2-c2ccc(N(C)C)cc2)c1 [CBK037575] | 111%
26 | COc1ccc2nc(NC(=O)c3cnc(-c4ccc(Cl)cc4)c(-c4cccnc4)c3)sc2c1 [CBK037576] | 105%
27 | CN(C)c1ccc(CC(=O)Nc2cnc(-c3ccc(F)c(Cl)c3)c(-c3ccco3)n2)cc1 [CBK037581] | 97.9%
28 | COc1ccc(-c2nc(NC(=O)Cc3ccc(N(C)C)cc3)cnc2-c2ccc(F)cc2)cn1 [CBK037582] | 97.9%
29 | CCNC(=O)c1cnc(-c2ccc(Cl)cc2)c(-c2cccnc2)c1 [CBK037584] | 103%
30 | O=C(NCCS(=O)(=O)c1ccccc1)c1cnc(-c2ccc(Cl)cc2)c(-c2ccncc2)c1 [CBK037587] | 100%
31 | N#Cc1ccccc1N1CCN(c2ccc(-c3ccccc3)cn2)CC1 [CBK037590] | 97.8%
32 | COc1ccc(NC(=O)c2cnc(-c3cccc(C(F)(F)F)c3)c(-c3ccncc3)c2)cc1 [CBK037593] | 87.3%
33 | Nc1ccc(-c2nc(NC(=O)c3cccs3)cnc2-c2ccc(F)cc2)cc1 [CBK037597] | 94.2%
34 | CN1CCN(c2cccc(-c3ccccc3Oc3ccccc3)n2)CC1 [CBK037598] | 101%
35 | COc1ncc(-c2cccc(N(C)CCN(C)C)n2)c(OC)n1 [CBK037599] | 99.1%
36 | CC(C)CNc1ccc(-c2cccc(N(C)C)c2)cn1 [CBK037603] | 76.9%
37 | O=C(NC(CN1CCOCC1)c1ccccc1)c1cnc(-c2ccc(Cl)cc2)c(-c2ccncc2)c1 (stereo not shown) [CBK037604] | 100%
38 | O=C(NCc1ccc(Cl)cc1)c1cnc(-c2cccc(C(F)(F)F)c2)c(-c2ccncc2)c1 [CBK037607] | 84.8%
39 | COc1cc(C)c(Nc2cccc(-c3ccc(O)cc3)n2)cc1OC [CBK037608] | 107%
40 | CN(C)CCN1CCN(c2cccc(-c3ccc(-c4ccccc4)cc3)n2)CC1 [CBK037610] | 103%
41 | CN1CCN(c2ccc(-c3cccc(N(C)C)c3)cn2)CC1 [CBK037621] | 102%
42 | COC(=O)C(NC(=O)c1cnc(-c2cccc(C(F)(F)F)c2)c(-c2ccncc2)c1)c1ccccc1 (stereo not shown) [CBK037624] | 98.9%
43 | c1cc(-c2nccnc2NCC2CCCCC2)ccn1 [CBK037627] | 99.4%
